Assay results as given in patent publication US9834521B2, “Choline kinase inhibitors” (ARIAD Pharmaceuticals, Inc., priority 2013, dated 2017).

Target: T1, truncated form of human Choline kinase α1 that includes residues 75-457 (Homo sapiens, UniProt P35790)
T1 construct: made in house
Assay: Kinase Assay, coupled (ATP regeneration) LDH/PK assay, NADH absorbance
Assay type: biochemical
Details: Examples designated with an asterisk (*): version 1 of the Kinase Assay, 200 nM enzyme; read-out: IC50
Procedure: Absorbance of NADH (340 nm) was measured over 30 min using a SpectraMax M5 (Molecular Devices). Initial reaction velocity (ΔA340/Δt) was calculated and plotted as a function of inhibitor concentration in a 2-fold dilution series. IC50 values were obtained by fitting the relative velocities to a dose-response model.

T1 sequence (P35790 75-457): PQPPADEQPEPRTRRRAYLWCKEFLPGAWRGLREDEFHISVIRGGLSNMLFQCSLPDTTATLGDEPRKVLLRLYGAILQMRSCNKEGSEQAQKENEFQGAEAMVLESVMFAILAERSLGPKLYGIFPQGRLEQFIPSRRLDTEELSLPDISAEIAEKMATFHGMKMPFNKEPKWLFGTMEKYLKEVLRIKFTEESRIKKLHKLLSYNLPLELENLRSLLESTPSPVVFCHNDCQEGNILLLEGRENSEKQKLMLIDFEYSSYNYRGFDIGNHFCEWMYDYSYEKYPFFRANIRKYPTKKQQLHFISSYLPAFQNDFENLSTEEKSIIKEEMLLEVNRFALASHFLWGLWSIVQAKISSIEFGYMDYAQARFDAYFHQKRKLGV

`CN1CCCN(Cc2ccc(CN3CCN(CCO)CC3)cc2)CC1` [Example 147, 2-(4-(4-((4-methyl-1,4-diazepan-1-yl)methyl)benzyl)piperazin-1-yl)ethanol] and `CN1CCCN(Cc2ccc(N3CCCC3=O)cc2)CC1` [Example 144, 1-(4-((4-methyl-1,4-diazepan-1-yl)methyl)phenyl)pyrrolidin-2-one] cannot be ordered by IC50: under 50000 nM for the first, under 50000 nM for the second.

Same assay, conditions: Examples not designated with an asterisk; footnote prints version 1 of the Kinase Assay; read-out: IC50

`CN1CCCN(Cc2ccc(-c3ccc(C(F)(F)F)cc3CO)cc2)CC1` [Example 131, (4′-((4-methyl-1,4-diazepan-1-yl)methyl)-4-(trifluoromethyl)-[1,1′-biphenyl]-2-yl)methanol] and `CN1CCCN(Cc2ccc(-c3ccc(O)cc3)c(C#N)c2)CC1` [Example 107, 4′-hydroxy-4-((4-methyl-1,4-diazepan-1-yl)methyl)-[1,1′-biphenyl]-2-carbonitrile] cannot be ordered by IC50: under 50000 nM for the first, under 500 nM for the second.

`CN1CCCN(Cc2ccc(-c3ccc(C(=O)N(C)C)cc3)c(C#N)c2)CC1` [Example 20, 2′-cyano-N,N-dimethyl-4′-((4-methyl-1,4-diazepan-1-yl)methyl)-[1,1′-biphenyl]-4-carboxamide] and `CC(=O)NS(=O)(=O)c1ccc(-c2ccc(CN3CCCN(C)CC3)cc2C#N)cc1` [Example 109, N-((2′-cyano-4′-((4-methyl-1,4-diazepan-1-yl)methyl)-[1,1′-biphenyl]-4-yl)sulfonyl)acetamide] cannot be ordered by IC50: under 50000 nM for the first, under 500 nM for the second.

`CN1CCCN(Cc2ccc(-c3cn[nH]c3)c(C#N)c2)CC1` [Example 112, 5-((4-methyl-1,4-diazepan-1-yl)methyl)-2-(1H-pyrazol-4-yl)benzonitrile] and `CN1CCCN(Cc2ccc(-c3cncc(N)c3)c(C#N)c2)CC1` [Example 124, 2-(5-aminopyridin-3-yl)-5-((4-methyl-1,4-diazepan-1-yl)methyl)benzonitrile] cannot be ordered by IC50: under 500 nM for the first, under 50000 nM for the second.

`CN1CCCN(Cc2ccc(-c3ccc4ccccc4c3)c(C#N)c2)CC1` [Example 126, 5-((4-methyl-1,4-diazepan-1-yl)methyl)-2-(naphthalen-2-yl)benzonitrile] and `CN1CCCN(Cc2ccc(-c3ccc(N)c([N+](=O)[O-])c3)c(C#N)c2)CC1` [Example 101, 4′-amino-4-((4-methyl-1,4-diazepan-1-yl)methyl)-3′-nitro-[1,1′-biphenyl]-2-carbonitrile] cannot be ordered by IC50: under 50000 nM for the first, under 500 nM for the second.

`CN1CCCN(Cc2ccc(-c3ccc(C(=O)O)cc3Br)c(C#N)c2)CC1` [Example 157, 2-bromo-2′-cyano-4′-((4-methyl-1,4-diazepan-1-yl)methyl)-[1,1′-biphenyl]-4-carboxylic acid] and `Cc1cc(C(=O)N2CCCN(C)CC2)ccc1-c1ccc(CN2CCCN(C)CC2)cc1C#N` [Example 60, 2′-methyl-4-((4-methyl-1,4-diazepan-1-yl)methyl)-4′-(4-methyl-1,4-diazepane-1-carbonyl)-[1,1′-biphenyl]-2-carbonitrile] cannot be ordered by IC50: under 50000 nM for the first, under 2000 nM for the second.

`CN1CCCN(Cc2ccc(-c3ccc(C(=O)N4CCC(O)C4)cc3)c(C#N)c2)CC1` (stereo not shown) [Example 25, 4′-(3-hydroxypyrrolidine-1-carbonyl)-4-((4-methyl-1,4-diazepan-1-yl)methyl)-[1,1′-biphenyl]-2-carbonitrile] and `Cc1ccc(-c2cc(C(=O)N3CCCN(C)CC3)ccc2-c2ccc(CN3CCCN(C)CC3)cc2C#N)cc1` [Example 70, 4″-methyl-4-((4-methyl-1,4-diazepan-1-yl)methyl)-4′-(4-methyl-1,4-diazepane-1-carbonyl)-[1,1′1:2′,1″-terphenyl]-2-carbonitrile] cannot be ordered by IC50: under 500 nM for the first, under 500 nM for the second.

`CN1CCCN(Cc2ccc(-c3ccc(C(=O)N4CCCN(C)CC4)cc3-c3ccc(S(C)(=O)=O)cc3)c(C#N)c2)CC1` [Example 75, 4-((4-methyl-1,4-diazepan-1-yl)methyl)-4′-(4-methyl-1,4-diazepane-1-carbonyl)-4″-(methylsulfonyl)-[1,1′1:2′,1″-terphenyl]-2-carbonitrile] and `Cc1cc(-c2ccc(CN3CCCN(C)CC3)cc2)ccc1CN1CCCN(C)CC1` [Example 54, 4,4′-((3-methyl-[1,1′-biphenyl]-4,4′-diyl)bis(methylene))bis(1-methyl-1,4-diazepane)] cannot be ordered by IC50: under 500 nM for the first, under 500 nM for the second.
